Blank lines part the entries; values can stand above or below the compound they belong to.
How the values were obtained:
Assay in all cases: radiometric filter-binding kinase assay
[1] = molecular target: CHEK2 (human) (UniProt O96017)
[2] = molecular target: DYRK2 (human) (UniProt Q92630)
[3] = molecular target: DYRK3 (human) (UniProt O43781)
[4] = molecular target: EPHA2 (human) (UniProt P29317)
[5] = molecular target: FLT1 (human) (UniProt P17948)
[6] = molecular target: HIPK2 (human) (UniProt Q9H2X6)
[7] = molecular target: IKBKE (human) (UniProt Q14164)
Chain of IKBKE (human) (Q14164 whole entry, looked up): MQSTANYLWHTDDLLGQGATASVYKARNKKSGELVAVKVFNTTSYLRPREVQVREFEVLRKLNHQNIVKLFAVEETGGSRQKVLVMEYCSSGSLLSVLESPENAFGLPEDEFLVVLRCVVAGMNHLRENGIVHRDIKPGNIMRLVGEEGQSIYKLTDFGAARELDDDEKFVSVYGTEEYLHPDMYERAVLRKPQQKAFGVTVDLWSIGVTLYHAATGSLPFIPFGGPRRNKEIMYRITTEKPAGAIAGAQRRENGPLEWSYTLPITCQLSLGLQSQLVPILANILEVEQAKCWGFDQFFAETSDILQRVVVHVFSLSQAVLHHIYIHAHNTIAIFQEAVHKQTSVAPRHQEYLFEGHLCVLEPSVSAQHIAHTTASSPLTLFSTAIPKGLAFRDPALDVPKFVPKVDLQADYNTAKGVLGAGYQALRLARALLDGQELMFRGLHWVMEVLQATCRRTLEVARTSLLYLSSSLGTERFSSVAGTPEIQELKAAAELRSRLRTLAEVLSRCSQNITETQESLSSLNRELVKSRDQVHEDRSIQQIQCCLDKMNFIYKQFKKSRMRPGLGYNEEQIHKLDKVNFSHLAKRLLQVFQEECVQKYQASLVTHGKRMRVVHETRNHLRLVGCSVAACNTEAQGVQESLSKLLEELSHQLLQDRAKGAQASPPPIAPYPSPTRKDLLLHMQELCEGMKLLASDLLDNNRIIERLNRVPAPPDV

[8] = molecular target: MAPK12 (human) (UniProt P53778)
Chain of MAPK12 (human) (P53778 whole entry, looked up): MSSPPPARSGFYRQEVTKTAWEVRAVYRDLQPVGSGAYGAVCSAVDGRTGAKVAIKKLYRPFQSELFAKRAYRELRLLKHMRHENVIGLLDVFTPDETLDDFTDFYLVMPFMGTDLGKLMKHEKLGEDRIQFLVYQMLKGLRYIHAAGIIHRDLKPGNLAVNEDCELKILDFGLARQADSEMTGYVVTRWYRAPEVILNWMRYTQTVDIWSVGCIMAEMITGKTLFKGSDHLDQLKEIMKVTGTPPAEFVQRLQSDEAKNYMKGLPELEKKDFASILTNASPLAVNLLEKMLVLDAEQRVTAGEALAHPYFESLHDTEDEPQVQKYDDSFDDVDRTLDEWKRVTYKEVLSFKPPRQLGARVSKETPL

[9] = molecular target: MAPK14 (human) (UniProt Q16539)
Chain of MAPK14 (human) (Q16539 whole entry, looked up): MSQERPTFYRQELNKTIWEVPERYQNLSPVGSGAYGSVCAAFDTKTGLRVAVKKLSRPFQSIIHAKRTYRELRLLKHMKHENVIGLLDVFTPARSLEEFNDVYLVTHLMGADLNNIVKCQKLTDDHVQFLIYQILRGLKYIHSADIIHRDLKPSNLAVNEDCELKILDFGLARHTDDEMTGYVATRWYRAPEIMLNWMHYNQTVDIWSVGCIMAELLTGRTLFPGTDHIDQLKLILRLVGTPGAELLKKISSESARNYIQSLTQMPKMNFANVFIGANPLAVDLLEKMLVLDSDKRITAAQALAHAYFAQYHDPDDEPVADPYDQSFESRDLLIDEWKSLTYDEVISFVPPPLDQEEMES

[10] = molecular target: MAPKAPK2 (human) (UniProt P49137)
[11] = molecular target: MAPKAPK5 (human) (UniProt Q8IW41)
[12] = molecular target: MELK (human) (UniProt Q14680)
[13] = molecular target: MYLK (human) (UniProt Q15746)
Chain of MYLK (human) (Q15746 whole entry, looked up): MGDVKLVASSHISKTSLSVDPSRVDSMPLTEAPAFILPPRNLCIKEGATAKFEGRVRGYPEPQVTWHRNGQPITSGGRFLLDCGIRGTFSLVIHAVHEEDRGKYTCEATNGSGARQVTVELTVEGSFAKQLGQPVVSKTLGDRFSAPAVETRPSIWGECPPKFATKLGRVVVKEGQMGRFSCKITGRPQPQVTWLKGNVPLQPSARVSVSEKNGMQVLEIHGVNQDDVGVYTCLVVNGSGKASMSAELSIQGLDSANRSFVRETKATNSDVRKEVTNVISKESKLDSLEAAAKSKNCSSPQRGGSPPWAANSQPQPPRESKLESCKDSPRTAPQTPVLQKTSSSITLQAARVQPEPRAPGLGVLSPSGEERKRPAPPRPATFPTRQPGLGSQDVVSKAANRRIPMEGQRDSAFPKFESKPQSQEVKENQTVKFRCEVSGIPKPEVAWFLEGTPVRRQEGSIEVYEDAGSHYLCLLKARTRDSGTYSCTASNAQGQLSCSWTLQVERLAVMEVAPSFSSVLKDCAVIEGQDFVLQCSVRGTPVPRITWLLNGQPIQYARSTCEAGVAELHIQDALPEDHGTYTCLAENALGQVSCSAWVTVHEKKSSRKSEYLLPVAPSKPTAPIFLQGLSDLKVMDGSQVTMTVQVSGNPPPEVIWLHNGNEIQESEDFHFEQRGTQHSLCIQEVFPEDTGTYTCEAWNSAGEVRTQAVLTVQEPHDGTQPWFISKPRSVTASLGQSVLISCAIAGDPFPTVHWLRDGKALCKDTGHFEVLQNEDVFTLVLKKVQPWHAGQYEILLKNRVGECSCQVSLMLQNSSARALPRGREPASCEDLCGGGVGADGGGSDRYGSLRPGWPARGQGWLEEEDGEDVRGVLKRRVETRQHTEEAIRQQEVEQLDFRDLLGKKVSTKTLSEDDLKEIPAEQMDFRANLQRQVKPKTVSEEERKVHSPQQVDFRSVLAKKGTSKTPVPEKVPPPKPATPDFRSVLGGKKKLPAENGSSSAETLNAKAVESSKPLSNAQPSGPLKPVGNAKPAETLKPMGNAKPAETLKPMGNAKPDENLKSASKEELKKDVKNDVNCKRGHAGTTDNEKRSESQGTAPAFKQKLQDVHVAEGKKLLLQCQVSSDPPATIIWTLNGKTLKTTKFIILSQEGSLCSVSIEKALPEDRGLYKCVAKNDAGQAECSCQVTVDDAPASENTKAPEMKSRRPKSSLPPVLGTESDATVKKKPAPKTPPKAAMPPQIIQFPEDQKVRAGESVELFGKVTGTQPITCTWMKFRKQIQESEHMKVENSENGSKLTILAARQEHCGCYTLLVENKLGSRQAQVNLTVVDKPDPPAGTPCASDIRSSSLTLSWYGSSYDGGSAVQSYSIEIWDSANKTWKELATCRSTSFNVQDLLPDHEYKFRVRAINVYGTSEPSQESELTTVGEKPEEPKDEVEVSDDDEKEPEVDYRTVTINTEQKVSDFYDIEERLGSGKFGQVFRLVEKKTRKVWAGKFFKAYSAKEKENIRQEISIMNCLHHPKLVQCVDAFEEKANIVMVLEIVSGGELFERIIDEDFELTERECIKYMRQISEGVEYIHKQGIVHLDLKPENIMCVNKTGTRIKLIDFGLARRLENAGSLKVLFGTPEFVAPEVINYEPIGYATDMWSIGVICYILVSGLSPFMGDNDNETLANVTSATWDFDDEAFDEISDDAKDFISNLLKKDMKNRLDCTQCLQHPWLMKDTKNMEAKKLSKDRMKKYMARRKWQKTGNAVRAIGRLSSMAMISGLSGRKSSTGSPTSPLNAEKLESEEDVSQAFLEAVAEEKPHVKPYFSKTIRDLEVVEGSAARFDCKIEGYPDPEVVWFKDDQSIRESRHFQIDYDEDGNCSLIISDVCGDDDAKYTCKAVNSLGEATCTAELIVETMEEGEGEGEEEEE

[14] = molecular target: NEK2 (human) (UniProt P51955)
Chain of NEK2 (human) (P51955 whole entry, looked up): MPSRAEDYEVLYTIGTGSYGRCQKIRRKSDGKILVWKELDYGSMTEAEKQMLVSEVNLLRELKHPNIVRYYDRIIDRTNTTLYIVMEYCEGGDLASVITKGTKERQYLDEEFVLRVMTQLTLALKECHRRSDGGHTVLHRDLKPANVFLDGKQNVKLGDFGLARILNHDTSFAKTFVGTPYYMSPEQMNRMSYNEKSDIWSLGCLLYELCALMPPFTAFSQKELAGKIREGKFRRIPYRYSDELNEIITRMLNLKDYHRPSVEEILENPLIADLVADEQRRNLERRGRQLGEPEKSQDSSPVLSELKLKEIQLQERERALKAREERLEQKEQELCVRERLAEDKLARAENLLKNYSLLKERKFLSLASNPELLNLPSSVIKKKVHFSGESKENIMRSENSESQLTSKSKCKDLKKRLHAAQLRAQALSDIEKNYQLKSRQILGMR

[15] = molecular target: PIM1 (human) (UniProt P11309)
[16] = molecular target: PIM3 (human) (UniProt Q86V86)
[17] = molecular target: PKN2 (human) (UniProt Q16513)
Chain of PKN2 (human) (Q16513 whole entry, looked up): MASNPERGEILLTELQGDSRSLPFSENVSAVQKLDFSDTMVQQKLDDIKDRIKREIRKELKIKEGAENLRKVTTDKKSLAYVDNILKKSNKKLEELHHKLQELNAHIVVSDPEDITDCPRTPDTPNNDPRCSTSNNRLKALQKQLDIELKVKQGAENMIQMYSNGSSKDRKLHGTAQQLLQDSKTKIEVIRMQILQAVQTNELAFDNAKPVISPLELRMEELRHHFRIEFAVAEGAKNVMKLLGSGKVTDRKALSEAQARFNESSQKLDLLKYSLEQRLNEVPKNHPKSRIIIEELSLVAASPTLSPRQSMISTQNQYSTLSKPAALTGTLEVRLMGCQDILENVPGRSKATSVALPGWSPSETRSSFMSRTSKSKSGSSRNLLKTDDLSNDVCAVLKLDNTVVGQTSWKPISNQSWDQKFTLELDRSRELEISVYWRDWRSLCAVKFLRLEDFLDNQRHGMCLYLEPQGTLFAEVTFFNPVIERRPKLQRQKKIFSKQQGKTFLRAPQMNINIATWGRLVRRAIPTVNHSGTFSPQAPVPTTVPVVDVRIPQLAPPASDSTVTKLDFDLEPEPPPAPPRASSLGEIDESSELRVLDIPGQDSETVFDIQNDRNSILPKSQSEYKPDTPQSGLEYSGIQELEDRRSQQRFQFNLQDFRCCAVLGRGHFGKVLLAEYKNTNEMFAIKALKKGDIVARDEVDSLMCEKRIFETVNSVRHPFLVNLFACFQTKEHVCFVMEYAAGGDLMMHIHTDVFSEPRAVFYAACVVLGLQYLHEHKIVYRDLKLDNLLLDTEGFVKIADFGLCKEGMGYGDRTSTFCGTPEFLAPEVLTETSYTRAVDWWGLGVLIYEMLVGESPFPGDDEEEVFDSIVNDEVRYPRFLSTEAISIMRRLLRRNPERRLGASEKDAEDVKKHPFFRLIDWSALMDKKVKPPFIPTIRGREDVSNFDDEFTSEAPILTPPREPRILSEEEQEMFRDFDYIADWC

[18] = molecular target: PRKCA (human) (UniProt P17252)
[19] = test system: ROCK2 (rat); conditions: accession and sequence are those of the human protein
[20] = molecular target: RPS6KA1 KD1 KD2 (human) (UniProt Q15418)
[21] = test system: RPS6KB1 (human), P23443 [T412E]
[22] = test system: SGK1 (human), O00141 [S422D]
[23] = molecular target: STK3 (human) (UniProt Q13188)

residual activity ([1]; compound 0.1 µM): -1%
residual activity ([1]; compound 1.0 µM): -5%
residual activity ([1]; compound 10.0 µM): 1%
residual activity ([2]; compound 0.1 µM): 19%
residual activity ([2]; compound 1.0 µM): 2%
residual activity ([2]; compound 10.0 µM): 0%
residual activity ([3]; compound 0.1 µM): 19%
residual activity ([3]; compound 1.0 µM): 4%
residual activity ([3]; compound 10.0 µM): 1%
residual activity ([4]; compound 0.1 µM): 93%
residual activity ([4]; compound 1.0 µM): 54%
residual activity ([4]; compound 10.0 µM): 20%
residual activity ([5]; compound 0.1 µM): 7%
residual activity ([5]; compound 1.0 µM): 3%
residual activity ([5]; compound 10.0 µM): 1%
residual activity ([6]; compound 0.1 µM): 33%
residual activity ([6]; compound 1.0 µM): 7%
residual activity ([6]; compound 10.0 µM): 1%
residual activity ([7]; compound 0.1 µM): 51%
residual activity ([7]; compound 1.0 µM): 12%
residual activity ([7]; compound 10.0 µM): 11%
residual activity ([8]; compound 0.1 µM): 93%
residual activity ([8]; compound 1.0 µM): 86%
residual activity ([9]; compound 0.1 µM): 81%
residual activity ([9]; compound 1.0 µM): 80%
residual activity ([9]; compound 10.0 µM): 45%
residual activity ([10]; compound 0.1 µM): 86%
residual activity ([10]; compound 1.0 µM): 49%
residual activity ([10]; compound 10.0 µM): 10%
residual activity ([11]; compound 0.1 µM): 95%
residual activity ([11]; compound 1.0 µM): 50%
residual activity ([11]; compound 10.0 µM): 8%
residual activity ([12]; compound 0.1 µM): 16%
residual activity ([12]; compound 1.0 µM): 3%
residual activity ([12]; compound 10.0 µM): 0%
residual activity ([13]; compound 0.1 µM): 54%
residual activity ([13]; compound 1.0 µM): 11%
residual activity ([13]; compound 10.0 µM): 1%
residual activity ([14]; compound 0.1 µM): 100%
residual activity ([14]; compound 1.0 µM): 75%
residual activity ([14]; compound 10.0 µM): 28%
residual activity ([15]; compound 0.1 µM): 43%
residual activity ([15]; compound 1.0 µM): 9%
residual activity ([15]; compound 10.0 µM): 2%
residual activity ([16]; compound 0.1 µM): 30%
residual activity ([16]; compound 1.0 µM): 9%
residual activity ([16]; compound 10.0 µM): 7%
residual activity ([17]; compound 0.1 µM): 25%
residual activity ([17]; compound 1.0 µM): 5%
residual activity ([17]; compound 10.0 µM): 6%
residual activity ([18]; compound 0.1 µM): 106%
residual activity ([18]; compound 1.0 µM): 83%
residual activity ([18]; compound 10.0 µM): 27%
residual activity ([19]; compound 1.0 µM): 37%
residual activity ([19]; compound 10.0 µM): 7%
residual activity ([20]; compound 0.1 µM): 24%
residual activity ([20]; compound 1.0 µM): 10%
residual activity ([20]; compound 10.0 µM): 5%
residual activity ([21]; compound 0.1 µM): 76%
residual activity ([21]; compound 1.0 µM): 32%
residual activity ([21]; compound 10.0 µM): 12%
residual activity ([22]; compound 0.1 µM): 77%
residual activity ([22]; compound 1.0 µM): 32%
residual activity ([22]; compound 10.0 µM): 6%
residual activity ([23]; compound 0.1 µM): 8%
residual activity ([23]; compound 1.0 µM): 2%
residual activity ([23]; compound 10.0 µM): 0%
Compound: NC(=O)Nc1ccc2c(c1)/C(=C/c1cc(-c3cccnc3)c[nH]1)C(=O)N2

Compound: C[C@H]1CCCC(=O)CCC/C=C/c2cc(O)cc(O)c2C(=O)O1
residual activity ([1]; compound 1.0 µM): 93%
residual activity ([1]; compound 10.0 µM): 73%
residual activity ([2]; compound 1.0 µM): 90%
residual activity ([2]; compound 10.0 µM): 62%
residual activity ([3]; compound 1.0 µM): 100%
residual activity ([3]; compound 10.0 µM): 62%
residual activity ([4]; compound 1.0 µM): 69%
residual activity ([4]; compound 10.0 µM): 26%
residual activity ([5]; compound 1.0 µM): 95%
residual activity ([5]; compound 10.0 µM): 69%
residual activity ([6]; compound 1.0 µM): 100%
residual activity ([6]; compound 10.0 µM): 63%
residual activity ([7]; compound 1.0 µM): 95%
residual activity ([7]; compound 10.0 µM): 82%
residual activity ([8]; compound 1.0 µM): 97%
residual activity ([8]; compound 10.0 µM): 93%
residual activity ([9]; compound 1.0 µM): 93%
residual activity ([9]; compound 10.0 µM): 85%
residual activity ([10]; compound 1.0 µM): 101%
residual activity ([10]; compound 10.0 µM): 92%
residual activity ([11]; compound 1.0 µM): 97%
residual activity ([11]; compound 10.0 µM): 79%
residual activity ([12]; compound 1.0 µM): 97%
residual activity ([12]; compound 10.0 µM): 66%
residual activity ([13]; compound 1.0 µM): 104%
residual activity ([13]; compound 10.0 µM): 59%
residual activity ([14]; compound 1.0 µM): 93%
residual activity ([14]; compound 10.0 µM): 96%
residual activity ([15]; compound 1.0 µM): 51%
residual activity ([15]; compound 10.0 µM): 11%
residual activity ([16]; compound 1.0 µM): 49%
residual activity ([16]; compound 10.0 µM): 18%
residual activity ([17]; compound 1.0 µM): 70%
residual activity ([17]; compound 10.0 µM): 33%
residual activity ([18]; compound 1.0 µM): 54%
residual activity ([18]; compound 10.0 µM): 69%
residual activity ([19]; compound 1.0 µM): 82%
residual activity ([19]; compound 10.0 µM): 81%
residual activity ([20]; compound 1.0 µM): 89%
residual activity ([20]; compound 10.0 µM): 41%
residual activity ([21]; compound 1.0 µM): 106%
residual activity ([21]; compound 10.0 µM): 61%
residual activity ([22]; compound 1.0 µM): 93%
residual activity ([22]; compound 10.0 µM): 93%
residual activity ([23]; compound 1.0 µM): 119%
residual activity ([23]; compound 10.0 µM): 113%

residual activity ([1]; compound 1.0 µM): 82%
residual activity ([1]; compound 10.0 µM): 94%
residual activity ([2]; compound 1.0 µM): 82%
residual activity ([2]; compound 10.0 µM): 98%
residual activity ([3]; compound 1.0 µM): 78%
residual activity ([3]; compound 10.0 µM): 96%
residual activity ([4]; compound 1.0 µM): 94%
residual activity ([4]; compound 10.0 µM): 86%
residual activity ([5]; compound 1.0 µM): 89%
residual activity ([6]; compound 10.0 µM): 92%
residual activity ([7]; compound 1.0 µM): 84%
residual activity ([7]; compound 10.0 µM): 93%
residual activity ([8]; compound 1.0 µM): 103%
residual activity ([8]; compound 10.0 µM): 96%
residual activity ([9]; compound 1.0 µM): 76%
residual activity ([9]; compound 10.0 µM): 82%
residual activity ([10]; compound 1.0 µM): 72%
residual activity ([10]; compound 10.0 µM): 96%
residual activity ([11]; compound 1.0 µM): 89%
residual activity ([11]; compound 10.0 µM): 100%
residual activity ([12]; compound 1.0 µM): 84%
residual activity ([12]; compound 10.0 µM): 100%
residual activity ([13]; compound 1.0 µM): 70%
residual activity ([13]; compound 10.0 µM): 94%
residual activity ([14]; compound 1.0 µM): 87%
residual activity ([14]; compound 10.0 µM): 92%
residual activity ([15]; compound 1.0 µM): 89%
residual activity ([15]; compound 10.0 µM): 93%
residual activity ([16]; compound 1.0 µM): 90%
residual activity ([16]; compound 10.0 µM): 95%
residual activity ([17]; compound 1.0 µM): 87%
residual activity ([17]; compound 10.0 µM): 82%
residual activity ([18]; compound 1.0 µM): 97%
residual activity ([18]; compound 10.0 µM): 104%
residual activity ([19]; compound 1.0 µM): 83%
residual activity ([19]; compound 10.0 µM): 96%
residual activity ([20]; compound 1.0 µM): 80%
residual activity ([20]; compound 10.0 µM): 91%
residual activity ([21]; compound 1.0 µM): 88%
residual activity ([21]; compound 10.0 µM): 100%
residual activity ([22]; compound 1.0 µM): 87%
residual activity ([22]; compound 10.0 µM): 96%
residual activity ([23]; compound 1.0 µM): 99%
residual activity ([23]; compound 10.0 µM): 102%
Compound: O=C1NC(=S)N[C@@H]1Cc1c[nH]c2ccccc12

residual activity ([1]; compound 0.1 µM): 101%
residual activity ([1]; compound 1.0 µM): 73%
residual activity ([1]; compound 10.0 µM): 72%
residual activity ([2]; compound 0.1 µM): 97%
residual activity ([2]; compound 1.0 µM): 104%
residual activity ([2]; compound 10.0 µM): 101%
residual activity ([3]; compound 0.1 µM): 106%
residual activity ([3]; compound 1.0 µM): 92%
residual activity ([3]; compound 10.0 µM): 83%
residual activity ([4]; compound 0.1 µM): 95%
residual activity ([4]; compound 1.0 µM): 86%
residual activity ([4]; compound 10.0 µM): 89%
residual activity ([5]; compound 0.1 µM): 97%
residual activity ([5]; compound 1.0 µM): 83%
residual activity ([5]; compound 10.0 µM): 37%
residual activity ([6]; compound 0.1 µM): 108%
residual activity ([6]; compound 1.0 µM): 86%
residual activity ([6]; compound 10.0 µM): 88%
residual activity ([7]; compound 0.1 µM): 103%
residual activity ([7]; compound 1.0 µM): 99%
residual activity ([7]; compound 10.0 µM): 96%
residual activity ([8]; compound 0.1 µM): 107%
residual activity ([8]; compound 1.0 µM): 102%
residual activity ([8]; compound 10.0 µM): 103%
residual activity ([9]; compound 0.1 µM): 86%
residual activity ([9]; compound 1.0 µM): 79%
residual activity ([9]; compound 10.0 µM): 86%
residual activity ([10]; compound 1.0 µM): 105%
residual activity ([10]; compound 10.0 µM): 78%
residual activity ([11]; compound 0.1 µM): 114%
residual activity ([11]; compound 1.0 µM): 97%
residual activity ([11]; compound 10.0 µM): 87%
residual activity ([12]; compound 0.1 µM): 94%
residual activity ([12]; compound 1.0 µM): 101%
residual activity ([12]; compound 10.0 µM): 87%
residual activity ([13]; compound 0.1 µM): 95%
residual activity ([13]; compound 1.0 µM): 79%
residual activity ([13]; compound 10.0 µM): 87%
residual activity ([14]; compound 0.1 µM): 95%
residual activity ([14]; compound 1.0 µM): 94%
residual activity ([14]; compound 10.0 µM): 91%
residual activity ([15]; compound 0.1 µM): 88%
residual activity ([15]; compound 1.0 µM): 90%
residual activity ([15]; compound 10.0 µM): 78%
residual activity ([16]; compound 0.1 µM): 93%
residual activity ([16]; compound 1.0 µM): 88%
residual activity ([16]; compound 10.0 µM): 83%
residual activity ([17]; compound 0.1 µM): 95%
residual activity ([17]; compound 1.0 µM): 86%
residual activity ([17]; compound 10.0 µM): 84%
residual activity ([18]; compound 0.1 µM): 119%
residual activity ([18]; compound 1.0 µM): 106%
residual activity ([18]; compound 10.0 µM): 62%
residual activity ([19]; compound 0.1 µM): 98%
residual activity ([19]; compound 1.0 µM): 91%
residual activity ([19]; compound 10.0 µM): 58%
residual activity ([20]; compound 0.1 µM): 46%
residual activity ([20]; compound 1.0 µM): 33%
residual activity ([20]; compound 10.0 µM): 0%
residual activity ([21]; compound 0.1 µM): 39%
residual activity ([21]; compound 1.0 µM): 16%
residual activity ([21]; compound 10.0 µM): 6%
residual activity ([22]; compound 0.1 µM): 106%
residual activity ([22]; compound 1.0 µM): 74%
residual activity ([22]; compound 10.0 µM): 65%
residual activity ([23]; compound 0.1 µM): 95%
residual activity ([23]; compound 1.0 µM): 85%
residual activity ([23]; compound 10.0 µM): 77%
Compound: CCc1cncnc1N1CCN(Cc2nc3cc(C(F)(F)F)ccc3[nH]2)CC1

— the kinase profiling compilation of Christmann-Franck et al. (2016)
